Earlier results as cited in US20030235623A1, “Aqueous disinfecting compositions with rapid bactericidal effect” (priority 2002, published 2003).

System: some bacteria

Compound: OO [Hydrogen peroxide]
- concentration known to inhibit the growth of some bacteria: 25 mg/L
